Where two headings read alike, the source gives them in different places.
Legend:
[1] = tested on: GM3 expression on the cell surface, C32 human melanoma cells; test: cell based phenotypic assay, cell surface GM3 by antibody mediated immunofluorescence, C32 (GM3 C32 IC50); details: 50% inhibition of GM3 expression on the cell surface
Method: (§1) The cell based assay was performed in two different cell types, B16 and C32. Cell viability was also assessed in the second, cell-based assay.
(§2) The “Compound Number” in the table corresponds to the compound disclosed in the Example of the same number. […] The results of the cell based assays (performed in two different cell systems, i.e. B16 mouse melanoma or C32 human melanoma cells) are expressed as “GM3 B16 IC50” or “GM3 C32 IC50” for the B16 assay and the C32 assay, respectively. […] The results of the viability assays are expressed as “Viability, B16 IC50” or “Viability, C32 IC50”, respectively. These values represent the concentration of the compound causing 50% cell death. Values greater than 10 represent a lack of cell death.

[2] = tested on: GM3 expression on the cell surface, B16 mouse melanoma cells; test: cell based phenotypic assay, cell surface GM3 by antibody mediated immunofluorescence, B16 (GM3 B16 IC50); details: 50% inhibition of GM3 expression on the cell surface
Method: as §1, §2

B16 mouse melanoma cells = test: cell viability in the B16 cell-based assay (Viability, B16 IC50); details: concentration causing 50% cell death, values greater than 10 represent a lack of cell death, read-out: Viability, B16 IC50
Method: as §1, §2

C32 human melanoma cells = test: cell viability in the C32 cell-based assay (Viability, C32 IC50)
Method: as §1, §2

[3] = molecular target: T1, glucosylceramide synthase (Homo sapiens, UniProt Q16739); test: microsomal assay measuring conversion of ceramide to glucosylceramide by HPLC (GCS IC50); type: biochemical; details: concentration causing 50% inhibition of glucosylceramide synthase activity
T1 construct: Microsomes were isolated from A375 human melanoma cells; endogenous in cells; host or cells: A375 human melanoma cells (microsomal fraction, 100,000 g pellet)
T1 sequence (Q16739 1-394): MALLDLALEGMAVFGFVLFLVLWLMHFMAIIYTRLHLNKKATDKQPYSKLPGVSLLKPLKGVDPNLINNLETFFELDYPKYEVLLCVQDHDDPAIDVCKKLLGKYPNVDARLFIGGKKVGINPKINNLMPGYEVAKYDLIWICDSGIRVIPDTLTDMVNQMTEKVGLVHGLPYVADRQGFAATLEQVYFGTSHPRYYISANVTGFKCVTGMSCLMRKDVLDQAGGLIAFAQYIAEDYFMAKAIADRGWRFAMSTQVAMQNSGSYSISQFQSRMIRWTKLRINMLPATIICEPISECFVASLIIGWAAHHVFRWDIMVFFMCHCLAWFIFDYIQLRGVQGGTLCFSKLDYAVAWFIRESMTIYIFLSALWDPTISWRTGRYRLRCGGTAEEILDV
Method: Inhibition of glucosylceramide synthase activity for certain compounds of the invention were measured with 1) a microsomal assay that directly measures the conversion of ceramide to glucosylceramide by HPLC and 2) second, cell based, phenotypic assay that monitors cell surface expression of the downstream lipid GM3 by antibody mediated immunofluorescence. The cell based assay was performed in two different cell types, B16 and C32. Cell viability was also assessed in the second, cell-based assay.
The “Compound Number” in the table corresponds to the compound disclosed in the Example of the same number. The results of the microsomal assay are expressed as “GCS IC50”, which represents the concentration of the compound causing 50% inhibition of glucosylceramide synthase activity. The results of the cell based assays (performed in two different cell systems, i.e. B16 mouse melanoma or C32 human melanoma cells) are expressed as “GM3 B16 IC50” or “GM3 C32 IC50” for the B16 assay and the C32 assay, respectively. These values represent the concentration of the compound causing 50% inhibition of GM3 expression on the cell surface. The results of the viability assays are expressed as “Viability, B16 IC50” or “Viability, C32 IC50”, respectively. These values represent the concentration of the compound causing 50% cell death. Values greater than 10 represent a lack of cell death.

[4] = C32 human melanoma cells, read-out: GM3 C32 IC50
[5] = B16 mouse melanoma cells, read-out: GM3 B16 IC50
[6] = C32 cells; concentration causing 50% cell death; values greater than 10 represent a lack of cell death; read-out: Viability, C32 IC50
[7] = Homo sapiens, C32, C32 cells; concentration causing 50% cell death; values greater than 10 represent a lack of cell death; read-out: Viability, C32 IC50

Row | Compound | IC50 [1, 4] | IC50 [2, 5] | IC50 [3] | IC50 ([1]; Homo sapiens, C32 human melanoma cells, read-out: GM3 C32 IC50) | IC50 ([2]; Mus musculus, B16 mouse melanoma cells, read-out: GM3 B16 IC50) | IC50 (B16 mouse melanoma cells; B16 cells) | IC50 (C32 human melanoma cells; [6]) | IC50 (B16 mouse melanoma cells; Mus musculus, B16, B16 cells) | IC50 (C32 human melanoma cells; [7]) | IC50 ([1]; Homo sapiens, read-out: GM3 C32 IC50, C32 human melanoma cells) | IC50 ([2]; Mus musculus, read-out: GM3 B16 IC50, B16 mouse melanoma cells) | IC50 (C32 human melanoma cells; read-out: Viability, C32 IC50; C32 cells; concentration causing 50% cell death; values greater than 10 represent a lack of cell death)
1 | 1-(4-(4-(2-Methoxyethoxy)phenyl)-2-methylbut-3-yn-2-yl)-3-(3-propylquinuclidin-3-yl)urea [Example 330] | 6.41 nM | 203 nM | 104 nM |  |  | ≥ 10 µM | 3160 nM |  |  |  |  | 
2 | 1-(4-(4-Fluorophenoxy)pyrimidin-2-yl)-N-(3-methylquinuclidin-3-yl)piperidine-4-carboxamide [Example 121] | 0.093 nM | 26.3 nM | 1.33 nM |  |  | 7.65 µM | 100 nM |  |  |  |  | 
3 | 1-(5-Fluoro-4-(4-(2-methoxyethoxy)phenyl)pyrimidin-2-yl)-N-(3-methylquinuclidin-3-yl)piperidine-4-carboxamide [Example 57] | 0.169 nM | 69.3 nM | 2.41 nM |  |  | ≥ 10 µM | 1000 nM |  |  |  |  | 
4 | 1-Azabicyclo[3.2.2]nonan-3-yl 4-(4′-fluoro-[1,1′-biphenyl]-3-yl)piperazine-1-carboxylate [Example 25] | 9380 nM | 4860 nM | 3480 nM |  |  | 5.39 µM | 5410 nM |  |  |  |  | 
5 | 2-(3-(3-(Methylcarbamoyl)phenoxy)phenyl)propan-2-ylcarbamate [Example 295] | 147 nM | 1750 nM | 1020 nM |  |  | ≥ 10 µM | ≥ 10000 nM |  |  |  |  | 
6 | 3-Ethyl-N-(4-methyl-1-azabicyclo[3.2.2]nonan-4-yl)-4-(4-phenylpyrimidin-2-yl)piperazine-1-carboxamide [Example 143] | 0.304 nM | 52.3 nM | 1.79 nM |  |  | 3.11 µM | 3160 nM |  |  |  |  | 
7 | 4-(4-(4-Fluorophenyl)pyrimidin-2-yl)-3-methyl-N-(4-methyl-1-azabicyclo[3.2.2]nonan-4-yl)piperazine-1-carboxamide [Example 146] | 0.559 nM | 110 nM | 16.6 nM |  |  | 6.37 µM | 1000 nM |  |  |  |  | 
8 | 4-(4′-Fluoro-[1,1′-biphenyl]-3-yl)-N-(4-methyl-1-azabicyclo[3.2.2]nonan-4-yl)piperazine-1-carboxamide [Example 22] | 41.1 nM | 629 nM | 613 nM |  |  | 7.06 µM | 1000 nM |  |  |  |  | 
9 | 4-([1,1′-Biphenyl]-3-yl)-3-methyl-N-(4-methyl-1-azabicyclo[3.2.2]nonan-4-yl)piperazine-1-carboxamide [Example 32] | 46.5 nM | 462 nM | 544 nM |  |  | 7.29 µM | 3160 nM |  |  |  |  | 
10 | CC1(NC(=O)C2CCN(c3nccc(-c4ccc(F)cc4)n3)CC2)CCN2CCC1CC2 (single isomer, unassigned) [Example 42, 1-(4-(4-Fluorophenyl)pyrimidin-2-yl)-N-(4-methyl-1-azabicyclo[3.2.2]nonan-4-yl)piperidine-4-carboxamide] | 9.82 nM | 918 nM | 94.1 nM |  |  |  |  | 7.66 µM | 4640 nM |  |  | 
11 | CCOc1ccc(-c2cccc(C(C)(C)NC(=O)OC3CN4CCC3CC4)c2)nn1 (stereo not drawn) [Example 318, Quinuclidin-3-yl (2-(3-(6-ethoxypyridazin-3-yl)phenyl)propan-2-yl)carbamate] |  |  | 1460 nM |  |  |  |  |  |  | 69.9 nM | 635 nM | 1000 nM

Continued, in another order:

Row | IC50 [1, 4] | IC50 [2, 5] | IC50 [3] | IC50 ([1]; Homo sapiens, C32 human melanoma cells, read-out: GM3 C32 IC50) | IC50 ([2]; Mus musculus, B16 mouse melanoma cells, read-out: GM3 B16 IC50) | Compound | IC50 (B16 mouse melanoma cells; B16 cells) | IC50 (C32 human melanoma cells; [6]) | IC50 (B16 mouse melanoma cells; Mus musculus, B16, B16 cells) | IC50 (C32 human melanoma cells; [7]) | IC50 ([1]; Homo sapiens, read-out: GM3 C32 IC50, C32 human melanoma cells) | IC50 ([2]; Mus musculus, read-out: GM3 B16 IC50, B16 mouse melanoma cells) | IC50 (C32 human melanoma cells; read-out: Viability, C32 IC50; C32 cells; concentration causing 50% cell death; values greater than 10 represent a lack of cell death)
12 |  |  | 5.45 nM | 1 nM | 96 nM | C[C@@H]1CN(C(=O)NC2(C)CCN3CCC2CC3)C[C@H](C)N1c1nccc(-c2ccccc2)n1 (relative stereo) [Example 147, cis-3,5-Dimethyl-N-(4-methyl-1-azabicyclo[3.2.2]nonan-4-yl)-4-(4-phenylpyrimidin-2-yl)piperazine-1-carboxamide] |  |  | 3.51 µM | 1000 nM |  |  | 
13 | 0.0655 nM | 6.54 nM | 1.25 nM |  |  | CC1(NC(=O)C2CCN(c3nccc(-c4ccc(F)cc4)n3)CC2)CCN2CCC1CC2 (single isomer, unassigned) [Example 43, 1-(4-(4-Fluorophenyl)pyrimidin-2-yl)-N-(4-methyl-1-azabicyclo[3.2.2]nonan-4-yl)piperidine-4-carboxamide] | 7.14 µM | 8920 nM |  |  |  |  | 
14 | 50 nM | 2190 nM | 258 nM |  |  | CC1(NC(=O)C2CCN(c3cncc(-c4ccc(F)cc4)n3)CC2)CCN2CCC1CC2 (single isomer, unassigned) [Example 47, 1-(6-(4-Fluorophenyl)pyrazin-2-yl)-N-(4-methyl-1-azabicyclo[3.2.2]nonan-4-yl)piperidine-4-carboxamide] |  | 3160 nM | 7.83 µM |  |  |  | 
15 | 0.096 nM | 47.7 nM | 1.61 nM |  |  | CC1(NC(=O)C2CCN(c3cncc(-c4ccc(F)cc4)n3)CC2)CCN2CCC1CC2 (single isomer, unassigned) [Example 48, 1-(6-(4-Fluorophenyl)pyrazin-2-yl)-N-(4-methyl-1-azabicyclo[3.2.2]nonan-4-yl)piperidine-4-carboxamide] | 7.76 µM | 5.17 nM |  |  |  |  | 
16 | 4.87 nM | 3120 nM | 64.7 nM |  |  | COCCOCc1ccc(-c2nc(N3CCC(F)(C(=O)NC4(C)CCN5CCC4CC5)CC3)ncc2F)cc1 (single isomer, unassigned) [Example 78, 4-Fluoro-1-(5-fluoro-4-(4-((2-methoxyethoxy)methyl)phenyl)pyrimidin-2-yl)-N-(4-methyl-1-azabicyclo[3.2.2]nonan-4-yl)piperidine-4-carboxamide] |  | 1000 nM | 3.54 µM |  |  |  | 
17 | 0.191 nM | 109 nM | 1.8 nM |  |  | COCCOCc1ccc(-c2nc(N3CCC(F)(C(=O)NC4(C)CCN5CCC4CC5)CC3)ncc2F)cc1 (single isomer, unassigned) [Example 79, 4-Fluoro-1-(5-fluoro-4-(4-((2-methoxyethoxy)methyl)phenyl)pyrimidin-2-yl)-N-(4-methyl-1-azabicyclo[3.2.2]nonan-4-yl)piperidine-4-carboxamide] | 4.28 µM | 215 nM |  |  |  |  | 
18 | 0.198 nM | 50.1 nM | 3.2 nM |  |  | C[C@@H]1CN(C(=O)NC2(C)CCN3CCC2CC3)CCN1c1nccc(-c2ccccc2)n1 (single isomer, unassigned) [Example 137] | 5.72 µM | 1000 nM |  |  |  |  | 
19 | 63.6 nM | > 10000 nM | 902 nM |  |  | C[C@@H]1CN(C(=O)NC2(C)CCN3CCC2CC3)CCN1c1nccc(-c2ccccc2)n1 (single isomer, unassigned) [Example 138] |  | 3160 nM | 9.31 µM |  |  |  | 
20 | 1.37 nM | 67 nM | 17.3 nM |  |  | C[C@H]1CN(C(=O)NC2(C)CCN3CCC2CC3)CCN1c1nccc(-c2ccccc2)n1 (single isomer, unassigned) [Example 139] |  |  | 5.25 µM | 3160 nM |  |  | 

Reference: patent US12060349B2, “Glucosylceramide synthase inhibitors” (Genzyme Corporation, priority 2012, dated 2024)
